Patent US6797807B1, “Compounds and methods for cancer therapy” (Adherex Technologies, Inc., priority 1997, dated 2004)

Tested on: Madin Darby canine kidney (MDCK) cells
Experiment: Electrical resistance across MDCK cell monolayers
Format: cell-based
Settings: 24 hours; for mean electrical resistance across MDCK cell monolayers: 0.5 mg/ml peptide, relative to the control (medium alone), FIG. 9; for formation of tight junctions in epithelial cells: conclusion from MDCK electrical resistance, 0.5 mg/ml
Protocol: Yet another assay evaluates the effect of an occludin modulating agent on the electrical resistance across a monolayer of cells. For example, Madin Darby canine kidney (MDCK) cells can be exposed to the modulating agent dissolved in medium (e.g., at a final concentration of 0.5 mg/ml for a period of 24 hours). The effect on electrical resistance can be measured using standard techniques. This assay evaluates the effect of a modulating agent on tight junction formation in epithelial cells. In general, the presence of 500 μg/mL modulating agent should result in a statistically significant increase or decrease in electrical resistance after 24 hours.
Madin Darby canine kidney (MDCK) cells were plated in Millicells (Millipore, Bedford, Mass.), at a density of 300,000 cells per Millicell, and cultured in Dulbecco's Modified Eagle Medium (DMEM; Sigma, St. Louis, Mo.) containing 5% fetal calf serum (Sigma, St. Louis, Mo.). Monolayers were exposed to the modulating agent dissolved in medium at a final concentration of 0.5 mg/ml for a period of 24 hours. The electrical resistance was measured using the EVOM device (World Precision Instruments, Sarasota, Fla.). At the time of measurement, fresh medium, with or without the modulating agent, may be added to the Millicells.

## H-QYLYHYCVVD-NH2 [Peptide 2]
  mean electrical resistance across MDCK cell monolayers: reduce the electrical resistance

## acetyl-CLYHYC-NH2 (Ac-CLYHYC-NH2; also: cyclic, kind not given here) [Peptide 4]
  mean electrical resistance across MDCK cell monolayers: increased the electrical resistance
  formation of tight junctions in epithelial cells: stimulate the formation of tight junctions in epithelial cells
Listed as N-Ac-CLYHYC-NH2
  formation of tight junctions in epithelial cells: stimulating the formation of tight junctions in epithelial cells
